Assay results: patent US20050031679A1, “Method for producing liposomal formulations of active ingredients” (priority 1998, published 2005)

Assay: Efficiency of inclusion of active ingredient added subsequently to a finished liposome gel
Format: physicochemical
Description: This object is achieved by a method for producing liposomes which comprise as active ingredient at least one physiologically active or/and diagnostic compound, by production of a mixture of membrane-forming amphiphiles, dispersion of the mixture in water and high pressure homogenization of the dispersion until the liposomes are formed, which comprises • (a) adding the active ingredient to any liposome preparation, preferably a liposome gel, which contains at least 20% by weight lipid, and • (b) incubating the active ingredient-containing mixture, where appropriate with mechanical agitation, until • (i) hydrophilic active ingredients are distributed in the liposomes and between the liposomes in accordance with the proportions by volume of aqueous medium inside and outside the liposomes in the preparation (equilibrium state) or • (ii) lipophilic compounds are incorporated in the lipid bilayer, or • (iii) amphiphilic compounds have surmounted the lipid bilayer and are incorporated or associated in the outer regions of the lipid bilayer.
A liposome gel which contains the cytostatic gemcitabine as active component cannot be autoclaved because this antitumor agent promotes the hydrolysis of the phospholipids, leading to complete phospholipid degradation under standard conditions during autoclaving. […]

In the case of `Nc1ccn([C@@H]2O[C@H](CO)[C@@H](O)C2(F)F)c(=O)n1` [gemcitabine], the efficiency of inclusion (autoclaved liposome gel mixed with concentrated buffered gemcitabine solution, incubation at 60° C. for four hours (equilibrium)) is reported as “more than 30%”.

Compound `C[C@@H]1[C@H](O)[C@@H](C)/C=C/C=C/C=C/C=C/C=C/C=C/C=C/[C@H](O[C@@H]2O[C@H](C)[C@@H](O)[C@H](N)[C@@H]2O)C[C@@H]2O[C@](O)(C[C@@H](O)C[C@@H](O)[C@H](O)CC[C@@H](O)C[C@@H](O)CC(=O)O[C@H]1C)C[C@H](O)[C@H]2C(=O)O` [amphotericin B] has an efficiency of inclusion (added as solid substance to the liposome gel, incubated with shaking at 50° C. for 3 hours) of 95%.
